Measurements taken from US20230295260A1, “GLP RECEPTOR AGONISTS” (HEPTARES THERAPEUTICS LIMITED, priority 2020, published 2023).
“Also recorded” adds a separate entry of the source. Non-standard residues stand in square brackets, D forms with d. Residues, ends and D or L forms follow the SMILES beside them. *: point of attachment. Malonyl(2,2-Me2,histaminyl) = CC(C)(C(=O)NCCc1cnc[nH]1)C(=O)*; Ala(1H-tetrazol-5-yl) = N[C@@H](Cc1nnn[nH]1)C(=O)O; Nle = CCCC[C@H](N)C(=O)O; Alloc = C=CCOC(=O)*

How the values were obtained:
human GLP1 receptor = target: T1, human GLP1 receptor (Homo sapiens, UniProt P43220); assay: cAMP accumulation assay (HTRF), functional agonism of human GLP1 receptor in HEK cells; format: cell-based; settings: HEK cells, human GLP1 receptor BacMam, 45 min 37° C.; for Emax: HEK293, read-out: Human GLP-1R agonist cAMP Emax; for EC50: read-out: Human GLP-1R agonist cAMP pEC50 (converted)
T1 construct: expressed in transfected cells; host or cells: HEK cells, BacMam virus transduction
Protocol: The functional activity of the peptides were assessed using a HTRF cAMP assay. pEC50 values are quoted.
cAMP production upon agonist stimulation of human GLP2 or GLP1 receptor was assessed utilizing HiRange cAMP kit (Cisbio). In brief, HEK cells were infected with either human GLP2 or GLP1 receptor BacMam virus for 24 hours and frozen for later use in the assay. […] Cells were prepared in the assay buffer (HBSS (Lonza) supplemented with 0.5 mM IBMX (Tocris)). After 45 min incubation at 37° C., the reaction was stopped by addition of the HTRF detection reagents in the lysis buffer provided in the kit.

mouse GLP1 receptor = target: T2, mouse GLP1 receptor (Mus musculus, UniProt O35659); assay: cAMP accumulation assay (HTRF), functional agonism of mouse GLP1 receptor in HEK cells; format: cell-based; settings: HEK cells transiently transfected, 45 min 37° C.; for Emax: HEK293, read-out: Mouse GLP-1 R agonist cAMP Emax; for EC50: read-out: Mouse GLP-1 R agonist cAMP pEC50 (converted)
T2 construct: expressed in transfected cells; host or cells: HEK cells, transient transfection with GeneJuice
T2 sequence (O35659 22-463): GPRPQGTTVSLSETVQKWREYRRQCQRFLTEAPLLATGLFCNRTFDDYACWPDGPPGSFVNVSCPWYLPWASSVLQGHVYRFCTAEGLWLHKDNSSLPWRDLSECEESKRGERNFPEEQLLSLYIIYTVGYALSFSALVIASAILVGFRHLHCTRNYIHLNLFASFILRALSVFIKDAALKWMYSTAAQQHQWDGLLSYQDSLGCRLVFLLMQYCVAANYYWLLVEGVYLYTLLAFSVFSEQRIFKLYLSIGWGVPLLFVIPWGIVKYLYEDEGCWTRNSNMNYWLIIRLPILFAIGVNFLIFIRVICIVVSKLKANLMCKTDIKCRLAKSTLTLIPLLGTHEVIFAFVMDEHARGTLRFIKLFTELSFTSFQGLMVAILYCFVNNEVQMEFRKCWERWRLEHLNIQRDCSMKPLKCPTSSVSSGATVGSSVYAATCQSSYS

mouse GLP2 receptor = target: T3, mouse GLP2 receptor (Mus musculus, UniProt Q5IXF8); assay: cAMP accumulation assay (HTRF), functional agonism of mouse GLP2 receptor in HEK cells; format: cell-based; settings: HEK cells transiently transfected, 45 min 37° C.; for Emax: HEK293, read-out: Mouse GLP-2R agonist cAMP Emax; for EC50: read-out: Mouse GLP-2R agonist cAMP pEC50 (converted)
T3 construct: expressed in transfected cells; host or cells: HEK cells, transient transfection with GeneJuice
T3 sequence (Q5IXF8 1-512): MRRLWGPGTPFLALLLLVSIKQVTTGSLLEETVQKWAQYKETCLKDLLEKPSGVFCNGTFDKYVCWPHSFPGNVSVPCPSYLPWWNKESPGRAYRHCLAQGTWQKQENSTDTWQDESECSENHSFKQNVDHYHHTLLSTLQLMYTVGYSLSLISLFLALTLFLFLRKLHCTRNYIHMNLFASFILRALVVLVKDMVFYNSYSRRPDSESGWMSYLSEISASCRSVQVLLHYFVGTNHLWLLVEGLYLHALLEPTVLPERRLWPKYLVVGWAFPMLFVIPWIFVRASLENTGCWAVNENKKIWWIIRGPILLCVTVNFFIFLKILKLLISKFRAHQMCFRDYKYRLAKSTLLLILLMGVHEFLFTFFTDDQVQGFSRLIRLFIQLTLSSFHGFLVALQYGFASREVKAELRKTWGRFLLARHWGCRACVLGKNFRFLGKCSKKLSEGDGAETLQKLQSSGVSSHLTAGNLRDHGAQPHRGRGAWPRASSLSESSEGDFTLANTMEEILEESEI

C57BL/6J male mice [1] = assay: Effect on intestinal wet weight in normal mice (FIG. 1); format: in vivo, mouse; settings: once daily sc 270 nmol/kg (liraglutide iv 200 ug/kg), sacrificed on day 3, vs. vehicle
Protocol: Mice were sacrificed on day 3 and the wet weight of the small intestine was quantified. GLP-2 active peptides show significant enhancement of the small intestinal weight. […] N=6 animals / grp. *p < 0.05 vs. vehicle
C57BL/6J male mice (Charles River, Italy, ~8 weeks) are randomly allocated to the treatment group based on the baseline body weights. Animals are given free access to food and water during the whole duration of the study. Mice are dosed daily with the test compounds via subcutaneous injection. […] The abdominal cavity will be opened and the intestinal tissue is excised carefully to avoid perforation. Tissue from the upper small intestine (15 cm segment from the pylorus) is collected. The bowel is cleaned by flushing through with ice cold PBS to remove any feces.

C57BL/6J male mice [2] = assay: Dose response effect on intestinal mass in normal mice, 7 day dosing (FIG. 2); format: in vivo, mouse; settings: daily sc
Protocol: The enhancement of the small bowel wet weight (over vehicle) is plotted as a function of the peptide dose. […] N=6 animals I grp.
C57BL/6J male mice (Charles River, Italy, ~8 weeks) are randomly allocated to the treatment group based on the baseline body weights. Animals are given free access to food and water during the whole duration of the study. Mice are dosed daily with the vehicle or test peptides via subcutaneous injection. On day 7, animals are sacrificed and segments from the upper small intestine (15 cm segment from the pylorus) are collected and weighed (see Example B).

C57BL/6J male mice [3] = assay: Effect on glucose tolerance (OGTT) in normal mice (FIG. 3); format: in vivo, mouse; settings: mice fasted 6 h, 270 nmol/kg sc 1 hour before 2 g/kg oral glucose (liraglutide 200 ug/kg iv)
Protocol: One hour before glucose challenge, Example 1 or 3 (270 nmol/kg) or vehicle (0.1% Tween80 in PBS) was administered as a single subcutaneous injection. […] Serial blood glucose measurements were taken at baseline and at timepoints post oral glucose challenge. (A) Time course of blood glucose levels. N=6 animals / grp. Mean +/-SEM.
C57BL/6J male mice (Charles River, Italy, ~8w) are fasted for 6 hours on the day of testing with free access to drinking water. Prior to drug dosing, pre-dose blood glucose measurements are taken using a glucometer (ACCU-CHEK performa, Roche Diagnostic GmbH). Animals are dosed with either the vehicle (0.1% Tween80 in PBS) or compound (270 nmol/kg) via subcutaneous injection. […] 1 hour after dosing, mice are given 2 g/kg oral gavage of glucose and blood is sampled at defined time points for analysis of blood glucose levels. Timepoints of sampling: t=0 (prior to glucose dosing), 15 mins, 30 mins, 60 mins, 120 mins and 180 mins.

human GLP2 receptor = target: T4, human GLP2 receptor (Homo sapiens, UniProt O95838); assay: cAMP accumulation assay (HTRF), functional agonism of human GLP2 receptor in HEK cells; settings: for Emax: HEK293, read-out: Human GLP-2R agonist cAMP Emax;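 as to all read-outs here: HEK cells transduced via BacMam to express human GLP2 receptor, agonist-stimulated cAMP measured by HTRF after 45 min at 37 °C in HBSS with 0.5 mM IBMX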
T4 sequence (O95838 1-553): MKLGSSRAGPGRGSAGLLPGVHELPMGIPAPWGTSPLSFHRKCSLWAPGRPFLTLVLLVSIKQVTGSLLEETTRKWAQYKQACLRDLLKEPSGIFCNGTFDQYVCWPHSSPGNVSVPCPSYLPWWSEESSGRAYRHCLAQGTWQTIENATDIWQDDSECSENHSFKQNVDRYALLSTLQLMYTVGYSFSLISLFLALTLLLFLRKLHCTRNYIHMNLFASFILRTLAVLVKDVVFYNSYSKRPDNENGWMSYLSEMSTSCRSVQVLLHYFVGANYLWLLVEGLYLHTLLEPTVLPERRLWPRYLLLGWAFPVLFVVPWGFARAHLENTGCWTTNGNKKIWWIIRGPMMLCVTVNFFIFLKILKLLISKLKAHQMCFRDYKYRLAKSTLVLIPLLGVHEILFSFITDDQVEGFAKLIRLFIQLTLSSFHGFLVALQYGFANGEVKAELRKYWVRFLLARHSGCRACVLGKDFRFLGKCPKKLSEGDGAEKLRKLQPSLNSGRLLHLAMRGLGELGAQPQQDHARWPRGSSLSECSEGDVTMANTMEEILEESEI

T1 sequence (P43220 24-463): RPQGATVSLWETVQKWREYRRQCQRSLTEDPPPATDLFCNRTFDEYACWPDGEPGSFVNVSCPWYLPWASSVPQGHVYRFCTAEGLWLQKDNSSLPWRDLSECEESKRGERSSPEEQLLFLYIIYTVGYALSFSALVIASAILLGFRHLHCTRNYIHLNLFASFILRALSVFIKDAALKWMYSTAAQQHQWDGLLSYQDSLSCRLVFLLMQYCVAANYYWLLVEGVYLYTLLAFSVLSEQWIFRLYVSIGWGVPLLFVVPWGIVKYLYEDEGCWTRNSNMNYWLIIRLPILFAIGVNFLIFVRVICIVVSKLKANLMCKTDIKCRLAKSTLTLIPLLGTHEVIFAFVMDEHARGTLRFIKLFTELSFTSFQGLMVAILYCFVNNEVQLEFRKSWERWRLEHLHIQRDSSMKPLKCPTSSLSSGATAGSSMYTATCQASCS

| SMILES | Emax (human GLP1 receptor) [%] | EC50 (human GLP1 receptor) [nM] | Emax (mouse GLP1 receptor) [%] | EC50 (mouse GLP1 receptor) [nM] | Emax (mouse GLP2 receptor) [%] | EC50 (mouse GLP2 receptor) [nM] | wet weight of the small intestine (C57BL/6J male mice [1]) | enhancement of small bowel wet weight (over vehicle) as a function of dose (C57BL/6J male mice [2]) | peak blood glucose concentration in OGTT (C57BL/6J male mice [3]) | EC50 (human GLP2 receptor) [nM] | Emax (human GLP2 receptor) [%] |
| --- | --- | --- | --- | --- | --- | --- | --- | --- | --- | --- | --- |
| C=CCOC(=O)NCCCC[C@H](NC(=O)[C@H](CC(C)C)NC(=O)[C@H](CC(=O)O)NC(=O)[C@H](CC(C)C)NC(=O)[C@@H](NC(=O)[C@@H](NC(=O)[C@@H](Cc1ccccc1)NC(=O)[C@H](CCCC)NC(=O)[C@H](CCC(=O)O)NC(=O)[C@H](CC(=O)O)NC(=O)[C@H](CO)NC(=O)[C@H](Cc1ccccc1)NC(=O)[C@H](CO)NC(=O)CNC(=O)[C@H](Cc1nn[nH]n1)NC(=O)C(C)(C)C(=O)NCCc1c[nH]cn1)[C@@H](C)O)[C@@H](C)CC)C(=O)N[C@@H](C)C(=O)N[C@@H](C)C(=O)N[C@@H](CCCCN)C(=O)N[C@@H](CC(=O)O)C(=O)N[C@@H](Cc1ccccc1)C(=O)N[C@H](C(=O)N[C@@H](CC(N)=O)C(=O)N[C@@H](Cc1c[nH]c2ccccc12)C(=O)N[C@@H](CC(C)C)C(=O)N[C@H](C(=O)N[C@@H](CCC(N)=O)C(=O)N[C@H](C(=O)N[C@@H](CCCCN)C(=O)N[C@H](C(=O)N[C@H](C(=O)N[C@@H](CC(=O)O)C(N)=O)[C@@H](C)O)[C@@H](C)CC)[C@@H](C)O)[C@@H](C)CC)[C@@H](C)CC [Example 1] ({Malonyl(2,2-Me2,histaminyl)}-[Ala(1H-tetrazol-5-yl)]GSFSDE[Nle][dF]TILDLK(Alloc)AAKDFINWLIQTKITD-NH2) | 94.1 | 3.16 | 95.9 | 3.16 | 102 | 0.2 | superior enhancements in intestinal weight compared to Teduglutide; also recorded: Significant enhancement of intestinal wet weight | greater maximal enhancements in small intestinal wet weight compared to Teduglutide; also recorded: dose dependent enhancements in the wet weight of the small intestine | significantly reduced | 0.01 | 102 |
| CCCC[C@H](NC(=O)[C@H](CCC(=O)O)NC(=O)[C@H](CC(=O)O)NC(=O)[C@H](CO)NC(=O)[C@H](Cc1ccccc1)NC(=O)[C@H](CO)NC(=O)CNC(=O)[C@H](CC(=O)O)NC(=O)CNC(=O)[C@@H](N)Cc1cnc[nH]1)C(=O)N[C@H](Cc1ccccc1)C(=O)N[C@H](C(=O)N[C@H](C(=O)N[C@@H](CC(C)C)C(=O)N[C@@H](CC(=O)O)C(=O)N[C@@H](CC(C)C)C(=O)N[C@@H](CC(C)C)C(=O)N[C@@H](C)C(=O)N[C@@H](C)C(=O)N[C@@H](CCCNC(=N)N)C(=O)N[C@@H](CC(=O)O)C(=O)N[C@@H](Cc1ccccc1)C(=O)N[C@H](C(=O)N[C@@H](CC(N)=O)C(=O)N[C@@H](Cc1c[nH]c2ccccc12)C(=O)N[C@@H](CC(C)C)C(=O)N[C@H](C(=O)N[C@@H](CCC(N)=O)C(=O)N[C@H](C(=O)N[C@@H](CCCCN)C(=O)N[C@H](C(=O)N[C@H](C(=O)N[C@@H](CC(=O)O)C(N)=O)[C@@H](C)O)[C@@H](C)CC)[C@@H](C)O)[C@@H](C)CC)[C@@H](C)CC)[C@@H](C)CC)[C@@H](C)O [FE-203799, reference compound] (H-HGDGSFSDE[Nle][dF]TILDLLAARDFINWLIQTKITD-NH2) | 61.4 | 158 | 53.4 | > 50.1 | 98.1 | 0.0316 |  |  |  | 0.0158 | 101 |
| CC[C@H](C)[C@H](NC(=O)[C@H](Cc1ccccc1)NC(=O)[C@H](CC(=O)O)NC(=O)[C@H](CCCNC(=N)N)NC(=O)[C@H](C)NC(=O)[C@H](C)NC(=O)[C@H](CC(C)C)NC(=O)[C@H](CC(N)=O)NC(=O)[C@H](CC(=O)O)NC(=O)[C@H](CC(C)C)NC(=O)[C@@H](NC(=O)[C@@H](NC(=O)[C@H](CC(N)=O)NC(=O)[C@H](CCSC)NC(=O)[C@H](CCC(=O)O)NC(=O)[C@H](CC(=O)O)NC(=O)[C@H](CO)NC(=O)[C@H](Cc1ccccc1)NC(=O)[C@H](CO)NC(=O)CNC(=O)[C@H](CC(=O)O)NC(=O)CNC(=O)[C@@H](N)Cc1c[nH]cn1)[C@@H](C)O)[C@@H](C)CC)C(=O)N[C@@H](CC(N)=O)C(=O)N[C@@H](Cc1c[nH]c2ccccc12)C(=O)N[C@@H](CC(C)C)C(=O)N[C@H](C(=O)N[C@@H](CCC(N)=O)C(=O)N[C@H](C(=O)N[C@@H](CCCCN)C(=O)N[C@H](C(=O)N[C@H](C(=O)N[C@@H](CC(=O)O)C(=O)O)[C@@H](C)O)[C@@H](C)CC)[C@@H](C)O)[C@@H](C)CC [Teduglutide, reference compound] | 60.3 | 316 | 1 | > 794 | 100 | 0.00794 | Significant enhancement of intestinal wet weight | dose dependent enhancements in the wet weight of the small intestine |  |  | 101 |
